According to ChEMBL document CHEMBL4765493, “Berberine Directly Targets the NEK7 Protein to Block the NEK7-NLRP3 Interaction and Exert Anti-inflammatory Activity” (J Med Chem, 2021):

Assay: Inhibition of LPS + nigericin-induced IL-1beta secretion in PMA-differentiated human THP-1 cells at 20 uM incubated for 24 hrs by ELISA
Format: functional

Row | Structure (SMILES) | inhibition at 20 µM [%]
1 | COc1cc2c(cc1OC)-c1cc3ccc(OC)c(OCCOCCNC(=O)CCCC[C@@H]4SC[C@@H]5NC(=O)N[C@@H]54)c3c[n+]1CC2 | 65
2 | COc1ccc2cc3[n+](cc2c1OCCCCCNC(=O)CCCC[C@@H]1SC[C@@H]2NC(=O)N[C@@H]21)CCc1cc2c(cc1-3)OCO2 | -2
3 | COc1ccc2cc3[n+](cc2c1OCCOCCOCCNC(=O)CCCC[C@@H]1SC[C@@H]2NC(=O)N[C@@H]21)CCc1cc2c(cc1-3)OCO2 | 16
4 | COc1cc2c(cc1OCCCCCNC(=O)CCCC[C@@H]1SC[C@@H]3NC(=O)N[C@@H]31)CC[n+]1cc3c(OC)c(OC)ccc3cc1-2 | 70
5 | COc1c(OCCCCCNC(=O)CCCC[C@@H]2SC[C@@H]3NC(=O)N[C@@H]32)ccc2cc3[n+](cc12)CCc1cc2c(cc1-3)OCO2 | 73
6 | COc1cc2c(cc1OCCOCCOCCNC(=O)CCCC[C@@H]1SC[C@@H]3NC(=O)N[C@@H]31)CC[n+]1cc3c(OC)c(OC)ccc3cc1-2 | -79
7 | COc1c(OCCOCCNC(=O)CCCC[C@@H]2SC[C@@H]3NC(=O)N[C@@H]32)ccc2cc3[n+](cc12)CCc1cc2c(cc1-3)OCO2 | 26
8 | COc1ccc2cc3[n+](cc2c1OCCOCCNC(=O)CCCC[C@@H]1SC[C@@H]2NC(=O)N[C@@H]21)CCc1cc2c(cc1-3)OCO2 | 10
9 | COc1cc2c(cc1OCCCNC(=O)CCCC[C@@H]1SC[C@@H]3NC(=O)N[C@@H]31)CC[n+]1cc3c(OC)c(OC)ccc3cc1-2 | -49
